Laboratory results taken from patent publication US11033630B2, “Method and pharmaceutical composition for treatment of neurodegeneration” (priority 2016, dated 2021).
Read-outs that look alike come from different tables or passages of the source. Each block holds one compound with its values, some of them ahead of it.

Columns and labels:
[1] = rat, in vivo, ip
Protocol: (§1) In this study, the ability of the Zn-DFO complex to infiltrate into the brain was examined. Rats were injected intraperitoneally (IP) with increasing amounts of DFO alone or Zn-DFO complex, and the concentration of DFO was measured in their brains, thus monitoring their infiltrability.
(§2) In particular, male Sprague-Dawley (SD) rats (300 g average body weight, 3 animals per group) were injected IP with DFO (250, 500, or 1000 mg/kg body weight). For comparison, Zn-DFO solution in freshly prepared saline was injected IP (250, 500, or 1000 mg/kg body weight, which are equivalent to 883, 442, or 221 mg DFO/kg body weight, respectively).
(§3) The behavior of the rats was monitored for 90 min following the injection. Then, the animals were euthanized using an injection of ketamine-xylazine, and their hearts, livers, left kidneys, and brains were excised and weighted. Brain samples (300 mg tissue) were homogenized in 3 ml Lysis buffer. Tissue homogenates were incubated at 110° C. for 5 min and centrifuged for 5 min at 14,500 relative centrifugal force (RCF). An equal volume of 40% trichloroacetic acid (TCA) solution was added, forming a solution containing 20% TCA, which was vortexed and centrifuged again. The supernatants were transferred into cuvettes, and DFO concentration was spectrophotometrically measured, after addition of 10 mM of ferric iron solution (as a weak complex of iron, ferric-nitrilo-tri-acetate, at pH=7.4), and scanning the range of λ=380-580 nm. The final concentration was calculated according to the Beer-Lambert law, using εDFO=2460 M^−1cm^−1; the total amount of DFO per gram tissue and per whole brain were calculated.

[2] = test system: H9C2 cardiomyocytes; experiment: Penetration of cellular membranes in tissue culture model; assay type: in vitro ADME; conditions: data not shown
Text: It is postulated that some of the useful effects exerted by DFO in inhibiting ROS formation are achieved through its actions as a chelating agent (chelant, chelator, or sequestering agent), capable of forming soluble complexes, i.e., chelates, with certain metal ions and consequently inactivating said metal ions such that they cannot normally react with other elements or ions. Such chelates often have chemical and biological properties that are markedly different from those of either the chelator or metal ion, alone. For example, whereas DFO is a molecule having a noodle-like structure that can sparingly infiltrate into cells, metal-chelates formed by said molecule, e.g., the zinc-, gallium- or iron-chelates, assume a globular structure capable of infiltrating into cells.

[3] = test system: MPTP model in C57BL/6 mice; experiment: MPTP mouse model of Parkinson's disease; assay type: in vivo; conditions: 2 mg/kg daily IP
Protocol: In this study, the therapeutic effect of metal-DFO complex on Parkinson's disease is tested, using the 1-methyl-4-phenyl-1,2,3,6-tetrahydropyridine (MPTP) model in mice.
Parkinson's disease is induced in 10 weeks old male C57BL/6 mice by four continuous IP injections of 20 mg/kg of MPTP, every 2 hours and during 8 hours, for 5 days (Jackson-Lewis and Przedborski, 2007). The animals are treated with Zn-DFO or Ga-DFO by daily IP injections, 2 mg/kg and 6 mg/kg, 30 min prior to the first exposure to MPTP. On day 8 the animals are euthanized. Immediately after the euthanasia, the striata are dissected out to perform biochemical and histological assessment of the damage to dopaminergic innervation.

[4] = rat, in vivo, ip; remark: listed apart in the source
Protocol: as §2
(§4) The behavior of the rats was monitored for 90 min following the injection.

[5] = test system: streptozotocin (STZ)-induced model in C57BL/6 mice; experiment: Streptozotocin-induced model of Alzheimer disease; assay type: in vivo; conditions: IP, Zn-DFO/Ga-DFO 2 and 6 mg/kg daily, Eu-DFO 4 mg/kg
Protocol: In this study, the therapeutic effect of metal-DFO complex on Alzheimer disease is tested, using the streptozotocin (STZ)-induced model in mice.
The disease is induced in 10 weeks old male C57BL/6 mice. The animals are placed into a stereotaxic frame for mice with nose and ear bars. STZ (3 mg/kg) or citrate buffer (for the control group) is injected bilaterally into the lateral ventricles at the following coordinates: AP—0.5 mm; ML ±1.1 mm; DV—2.8 mm relative to the bregma in a total volume of 1.5 μl to hemisphere. The injections are repeated 2 days after the first STZ injection (1.5 mg/kg). In order to confirm that the stereotaxic coordinates used throughout the study are suitable for STZ injection into lateral ventricles, FITC-labeled latex microspheres are injected into lateral ventricles and the presence of fluorescence in the surrounding brain tissue is examined 24 h after injection. Mice are treated with Zn-DFO or Ga-DFO daily, by IP injections of 2 mg/kg and 6 mg/kg, and with Eu-DFO as IP injection, 4 mg/kg. During 21 days of the experiment the mice undergo maze tests and novel object recognition (NOR) tests every 7 days. Clinical signs including general body condition and dehydration are monitored daily after the surgery. Every 7 days a representative number of mice is taken from each group and euthanized for Alzheimer's disease markers (amyloid-β protein, neurofilament expression, phosphorylation of Tau protein, synapsin expression) biochemical and histochemical evaluation (Ravelli et al., 2016).

[6] = test system: MOG35-55-induced EAE in C57BL/6 mice; experiment: Experimental Autoimmune Encephalomyelitis (EAE), model for multiple sclerosis; assay type: in vivo
Protocol: In this study, the therapeutic effect of metal-DFO complex on multiple sclerosis (MS) is tested, using the Experimental Autoimmune Encephalomyelitis (EAE) in mice.
EAE is induced in 8-week-old female C57BL/6 mice by subcutaneous (SC) injection of 125 μg of myelin oligodendrocyte glycoprotein 35-55 peptide (MOG35-55) emulsified in complete Freund's adjuvant (CFA) containing 5 mg/ml heat-killed Mycobacterium tuberculosis into the left para-lumbar region. Immediately thereafter, and again at 48 h, the mice are inoculated intraperitoneal (IP) with 0.5 ml of pertussis toxin (400 ng). Seven days later, the mice are further challenged with an additional injection of MOG35-55 peptide in CFA injected into the right para-lumbar region. Mice are treated with Zn-DFO or Ga-DFO daily as IP injections, 2 mg/kg and 6 mg/kg.
The severity of the disease is assessed using the scale shown in Table 2 (Bittner et al., 2014).

[7] = test system: contusion spinal cord injury model in C57BL/6 mice; experiment: Contusion spinal cord injury model; assay type: in vivo; conditions: 3 mg/kg IP
Protocol: In this study, the therapeutic effect of metal-DFO complex on spinal cord injury was tested, using a contusion spinal cord injury model in C57BL/6 mice.
A contusion spinal cord injury model was employed using Infinite Horizon spinal cord impactor. The injury was performed at force setting of 70 kilodyne, for 100 ms (milisecond) on exposed T12 vertebra of the mouse (8 weeks old male), anesthetized with a ketamine-xylazine mixture (85:15), and immobilized. Immediately before the impact, the mice were injected with buprenorphine (0.1 mg/ml/kg body weight) as an analgesic.
Twenty one mice, after contusion, were divided into three groups (n=7), according to their treatment as following (Basso et al., 2006): Group 1—control untreated; Group 2—treated with saline (IP injections of 100 μl on Days 1, 2, 3, 4, 6, 8, 10, 12, 14, 17, 20, 23, 27, 31, 35, 39, and 42); Group 3—treated with Zn-DFO complex, 3 mg/kg body weight in saline (IP injections of 100 μl according to the same regimen as Group 2). Both treated groups (saline and Zn-DFO complex) received the first treatment 10 min following the Impactor-induced trauma.
The post-traumatic recovery of mice locomotion with or without treatment was assessed on a daily basis for the next 43 days, using open field Basso mouse scale (BMS) score as following: 0—no ankle movement; 1—slight ankle movement; 2—extensive ankle movement; 3—plantar placing of the paw with or without weight support, or occasional, frequent or consistent dorsal stepping but no plantar stepping; 4—occasional plantar stepping; 5—frequent or consistent plantar stepping, no coordination, or frequent or consistent plantar stepping, some coordination, paws rotated at initial contact and lift off (R/R); 6—frequent or consistent plantar stepping, some coordination, paws parallel at initial contact (P/R, P/P), or frequent or consistent plantar stepping, mostly coordinated, paws rotated at initial contact and lift off (R/R); 7—frequent or consistent plantar stepping, mostly coordinated, paws parallel at initial contact and rotated at lift off (P/R), or frequent or consistent plantar stepping, mostly coordinated, paws parallel at initial contact and lift off (P/P), and severe trunk instability; 8—frequent or consistent plantar stepping, mostly coordinated, paws parallel at initial contact and lift off (P/P), and mild trunk instability, or frequent or consistent plantar stepping, mostly coordinated, paws parallel at initial contact and lift off (P/P), and normal trunk stability and tail down or up & down; and 9—frequent or consistent plantar stepping, mostly coordinated, paws parallel at initial contact and lift off (P/P), and normal trunk stability and tail always up (P—parallel; R—rotated). The values were normalized considering the basal score on Day 0 as 100%.
On Day 43, the animals were euthanized, and their spinal cords were excised and stored in paraformaldehyde (PFA) 4% for histological analysis. Epon blocks were prepared, and the histological analysis was performed after staining with methylene blue.

[8] = complex with Zn(II); cited from earlier work
[9] = Behavior of rats monitored after IP injection; conditions: monitored for 90 min
Protocol: as §2, §4

[10] = Blood-Brain Barrier (BBB) penetration: DFO concentration in rat brain after IP injection; conditions: for DFO (mg/g organ) / DFO (mg/whole organ): rat brain, 90 min after IP injection
Protocol: as §1, §2, §3

[11] = complex with Cu(II); cited from earlier work
[12] = complex with Fe(III); cited from earlier work
[13] = complex with Ga(III); cited from earlier work

infiltrability into the brain relative to DFO alone [1]: at least 8.6 fold | DFO (mg/g organ) ([1]; 250 mg/kg): 0.017 ± 0.002 mg/g organ | DFO (mg/whole organ) ([1]; 250 mg/kg): 0.032 ± 0.004 mg/whole organ | DFO infiltrated the brain (%) ([1]; 250 mg/kg): 0.014% | DFO (mg/g organ) ([1]; 500 mg/kg): 0.031 ± 0.001 mg/g organ | DFO (mg/whole organ) ([1]; 500 mg/kg): 0.054 ± 0.002 mg/whole organ | DFO infiltrated the brain (%) ([1]; 500 mg/kg): 0.012% | DFO (mg/g organ) ([1]; 1000 mg/kg): 0.072 ± 0.011 mg/g organ | DFO (mg/whole organ) ([1]; 1000 mg/kg): 0.133 ± 0.010 mg/whole organ | DFO infiltrated the brain (%) ([1]; 1000 mg/kg): 0.014% | ability to infiltrate into the cells relative to DFO alone [2]: more than threefold higher | changes in rats' behavior ([4]; 1000 mg/kg): passive and apathetic
Compound: Zinc-desferrioxamine B [Zn-DFO]
number of TH-positive neurons within the substantia nigra (% of control) [3]: 65% | changes in rats' behavior ([4]; 250 mg/kg): no changes in the rats' behavior could be identified | changes in rats' behavior ([4]; 500 mg/kg): no changes in the rats' behavior could be identified | diminishing expression of synapsin [5]: attenuate this process dose-dependently | expression of Aβ protein and phosphorylation of Tau protein in the hippocampus [5]: inhibited | impairment of maze and NOR test outcomes [5]: (largely) prevent this impairment in a dose-dependent manner | onset of the disease ([6]; 2 mg/kg daily IP): 14 days | onset of the disease ([6]; 6 mg/kg daily IP): 15 to 16 days | peak clinical score ([6]; 6 mg/kg daily IP, Day 19, Table 2 scale): less than 3 | BMS score ([7]; Day 13): 5.1 | normalized BMS score (% of initial scoring, Day 0) ([7]; Day 13): 347% | normalized BMS score (% of initial scoring), plateau ([7]; Day 29): 389% | BMS score, plateau ([7]; Day 29, scale 0-9): 5.7 | density of axons and axonal myelin sheath in white matter ([7]; spinal cord histology, Day 43): restoring the density of axons and axonal myelin sheath | white matter area (fraction of the total area) ([7]; spinal cord histology, Day 43): 50.8±3.3% | body weight gain ([7]; vs non-treated or saline-treated animals): gained weight better than the non-treated or saline-treated animals

DFO (mg/g organ) ([10]; 250 mg/kg): <0.005 mg/g organ | DFO (mg/whole organ) ([10]; 250 mg/kg): <0.005 mg/whole organ | DFO (mg/g organ) ([10]; 500 mg/kg): <0.005 mg/g organ | DFO (mg/whole organ) ([10]; 500 mg/kg): <0.005 mg/whole organ | DFO (mg/g organ) ([10]; 1000 mg/kg): 0.008 ± 0.004 mg/g organ | DFO (mg/whole organ) ([10]; 1000 mg/kg): 0.019 ± 0.008 mg/whole organ | DFO infiltrated the brain (%) ([10]; rat, IP, 250 mg/kg): <0.0015% | DFO infiltrated the brain (%) ([10]; rat, IP, 500 mg/kg): <0.0015% | DFO infiltrated the brain (%) ([10]; rat, IP, 1000 mg/kg): 0.002% | fraction of DFO that had infiltrated into the brain ([10]; rat, IP, over the 3 doses (250, 500 and 1000 mg/kg)): ≤ 0.002%
Compound: CC(=O)N(O)CCCCCNC(=O)CCC(=O)N(O)CCCCCNC(=O)CCC(=O)N(O)CCCCCN [DFO, N′-[5-(Acetyl-hydroxy-amino)pentyl]-N-[5-[3-(5-aminopentyl-hydroxy-carbamoyl)propanoylamino]pentyl]-N-hydroxy-butane diamide]
relative stability constant of DFO complex [8]: 10^11 | changes in rats' behavior ([9]; IP 250 mg/kg): no changes in rats' behavior was observed | changes in rats' behavior ([9]; IP 500 mg/kg): no changes in rats' behavior was observed | changes in rats' behavior ([9]; IP 1000 mg/kg): no changes in rats' behavior was observed | relative stability constant of DFO complex [11]: 10^14 | relative stability constant of DFO complex [12]: 10^31 | relative stability constant of DFO complex [13]: 10^28

Compound: CC(=O)N(O)CCCCCNC(=O)CCC(=O)N(O)CCCCCNC(=O)CCC(=O)N(O)CCCCCN.[Eu+3] [Eu-DFO]
diminishing expression of synapsin [5]: Only a minute effect | expression of Aβ protein and phosphorylation of Tau protein in the hippocampus [5]: slightly better than Ga-DFO

Compound: CC(=O)N([O-])CCCCCNC(=O)CCC(=O)N([O-])CCCCCNC(=O)CCC(=O)N([O-])CCCCCN.[Ga+3] [Ga-DFO, gallium-desferrioxamine B]
number of TH-positive neurons within the substantia nigra (% of control) [3]: 65% | diminishing expression of synapsin [5]: attenuate this process dose-dependently | expression of Aβ protein and phosphorylation of Tau protein in the hippocampus [5]: inhibited | impairment of maze and NOR test outcomes [5]: (largely) prevent this impairment in a dose-dependent manner | onset of the disease ([6]; 2 mg/kg daily IP): 14 days | onset of the disease ([6]; 6 mg/kg daily IP): 15 days
